{"source": "paper PMC9414551", "about": "(Pharmaceuticals, 2022)", "key": {"[1]": {"biological_target": "T1, NR1-2B NMDAR (Homo sapiens, UniProt Q05586+Q13224)", "T1 sequence (Q13224 27-1484, other chains not shown)": "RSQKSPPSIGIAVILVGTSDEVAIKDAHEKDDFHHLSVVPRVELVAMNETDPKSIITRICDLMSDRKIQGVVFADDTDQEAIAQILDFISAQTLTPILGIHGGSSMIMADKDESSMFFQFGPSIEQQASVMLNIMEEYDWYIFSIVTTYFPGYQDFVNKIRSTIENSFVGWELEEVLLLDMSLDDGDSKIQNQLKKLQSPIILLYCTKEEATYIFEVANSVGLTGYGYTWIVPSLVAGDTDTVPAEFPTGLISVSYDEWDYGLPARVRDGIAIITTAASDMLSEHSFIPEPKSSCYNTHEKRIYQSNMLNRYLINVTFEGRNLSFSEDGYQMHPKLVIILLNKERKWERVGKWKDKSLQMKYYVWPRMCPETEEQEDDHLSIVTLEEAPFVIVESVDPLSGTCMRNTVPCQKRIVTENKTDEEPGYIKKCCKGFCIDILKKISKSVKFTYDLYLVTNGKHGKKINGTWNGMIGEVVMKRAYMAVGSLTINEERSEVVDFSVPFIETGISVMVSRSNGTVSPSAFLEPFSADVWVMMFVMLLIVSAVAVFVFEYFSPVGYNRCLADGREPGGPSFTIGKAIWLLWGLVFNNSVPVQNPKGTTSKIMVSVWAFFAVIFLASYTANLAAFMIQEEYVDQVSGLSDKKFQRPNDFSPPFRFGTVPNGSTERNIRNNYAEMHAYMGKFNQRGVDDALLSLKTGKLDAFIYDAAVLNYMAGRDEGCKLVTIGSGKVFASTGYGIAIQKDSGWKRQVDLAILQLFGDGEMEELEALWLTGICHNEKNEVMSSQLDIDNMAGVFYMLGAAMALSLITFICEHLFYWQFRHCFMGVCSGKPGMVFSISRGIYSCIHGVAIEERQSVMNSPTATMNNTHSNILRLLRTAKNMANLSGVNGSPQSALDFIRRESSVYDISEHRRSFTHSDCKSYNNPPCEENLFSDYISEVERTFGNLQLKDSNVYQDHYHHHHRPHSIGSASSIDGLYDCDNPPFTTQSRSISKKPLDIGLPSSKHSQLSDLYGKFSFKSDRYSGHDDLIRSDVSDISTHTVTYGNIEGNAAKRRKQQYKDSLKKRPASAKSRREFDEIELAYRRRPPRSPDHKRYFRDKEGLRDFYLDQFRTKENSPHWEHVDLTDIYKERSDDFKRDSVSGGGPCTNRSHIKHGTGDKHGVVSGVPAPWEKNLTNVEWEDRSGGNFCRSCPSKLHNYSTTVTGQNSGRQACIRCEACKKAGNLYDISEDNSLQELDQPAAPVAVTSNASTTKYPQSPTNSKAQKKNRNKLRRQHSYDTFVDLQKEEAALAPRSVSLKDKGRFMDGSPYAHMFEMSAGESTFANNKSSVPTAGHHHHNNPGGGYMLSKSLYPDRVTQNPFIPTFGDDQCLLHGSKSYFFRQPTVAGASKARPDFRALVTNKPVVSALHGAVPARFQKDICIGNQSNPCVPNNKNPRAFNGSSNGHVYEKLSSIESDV", "assay": "cell-based", "assay_type": "cell-based", "set-up": "host or cells: CHO (CHO-hNR1-h2B), constitutive expression"}, "[2]": {"biological_target": "T2, NR1-2C NMDAR (Homo sapiens, UniProt Q05586+Q14957)", "assay": "cell-based", "assay_type": "cell-based", "set-up": "host or cells: CHO (CHO-hN1-h2C), tetracycline-induced expression"}, "[3]": {"biological_target": "T3, NR1-2D NMDAR (Homo sapiens, UniProt O15399+Q05586)", "T3 sequence (O15399 28-1336, other chains not shown)": "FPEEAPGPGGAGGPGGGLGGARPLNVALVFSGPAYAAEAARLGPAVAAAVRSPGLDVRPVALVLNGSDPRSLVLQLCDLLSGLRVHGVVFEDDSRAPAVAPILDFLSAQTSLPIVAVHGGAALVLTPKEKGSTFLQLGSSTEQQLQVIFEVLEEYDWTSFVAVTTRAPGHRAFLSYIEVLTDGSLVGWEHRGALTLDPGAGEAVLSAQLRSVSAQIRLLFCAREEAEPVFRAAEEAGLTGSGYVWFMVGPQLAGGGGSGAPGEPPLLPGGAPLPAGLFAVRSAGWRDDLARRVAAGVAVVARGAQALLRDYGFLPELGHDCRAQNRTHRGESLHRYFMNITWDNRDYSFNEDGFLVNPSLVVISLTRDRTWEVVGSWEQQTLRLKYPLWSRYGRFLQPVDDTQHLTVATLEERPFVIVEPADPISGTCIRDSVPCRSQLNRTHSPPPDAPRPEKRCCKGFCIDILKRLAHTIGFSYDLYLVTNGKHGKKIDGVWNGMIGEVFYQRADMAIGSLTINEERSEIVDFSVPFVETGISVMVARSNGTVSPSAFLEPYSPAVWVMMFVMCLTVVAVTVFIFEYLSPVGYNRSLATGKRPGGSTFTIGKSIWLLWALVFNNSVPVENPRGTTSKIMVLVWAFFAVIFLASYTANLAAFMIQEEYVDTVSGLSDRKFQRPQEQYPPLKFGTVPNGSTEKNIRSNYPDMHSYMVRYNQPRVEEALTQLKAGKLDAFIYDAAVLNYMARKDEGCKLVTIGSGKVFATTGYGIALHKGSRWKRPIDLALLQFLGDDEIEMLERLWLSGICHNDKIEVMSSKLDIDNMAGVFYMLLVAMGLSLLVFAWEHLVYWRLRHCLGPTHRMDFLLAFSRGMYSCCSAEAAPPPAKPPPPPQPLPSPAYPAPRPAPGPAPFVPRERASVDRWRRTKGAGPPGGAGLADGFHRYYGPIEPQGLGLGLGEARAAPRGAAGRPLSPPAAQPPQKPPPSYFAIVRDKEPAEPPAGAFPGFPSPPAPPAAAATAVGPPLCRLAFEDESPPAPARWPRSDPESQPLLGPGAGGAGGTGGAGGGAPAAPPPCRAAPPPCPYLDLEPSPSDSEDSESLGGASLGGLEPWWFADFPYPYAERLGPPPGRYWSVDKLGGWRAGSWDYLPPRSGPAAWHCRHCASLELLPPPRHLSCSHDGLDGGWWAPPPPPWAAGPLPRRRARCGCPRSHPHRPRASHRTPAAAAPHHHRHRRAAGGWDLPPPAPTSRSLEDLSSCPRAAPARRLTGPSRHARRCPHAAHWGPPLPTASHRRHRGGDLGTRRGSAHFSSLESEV", "assay": "cell-based", "assay_type": "cell-based", "set-up": "host or cells: CHO (CHO-hN1-h2D), tetracycline-induced expression"}, "[4]": {"biological_target": "T4, NR1-2A NMDAR (Homo sapiens, UniProt Q05586+Q12879)", "T4 sequence (Q12879 23-1464, other chains not shown)": "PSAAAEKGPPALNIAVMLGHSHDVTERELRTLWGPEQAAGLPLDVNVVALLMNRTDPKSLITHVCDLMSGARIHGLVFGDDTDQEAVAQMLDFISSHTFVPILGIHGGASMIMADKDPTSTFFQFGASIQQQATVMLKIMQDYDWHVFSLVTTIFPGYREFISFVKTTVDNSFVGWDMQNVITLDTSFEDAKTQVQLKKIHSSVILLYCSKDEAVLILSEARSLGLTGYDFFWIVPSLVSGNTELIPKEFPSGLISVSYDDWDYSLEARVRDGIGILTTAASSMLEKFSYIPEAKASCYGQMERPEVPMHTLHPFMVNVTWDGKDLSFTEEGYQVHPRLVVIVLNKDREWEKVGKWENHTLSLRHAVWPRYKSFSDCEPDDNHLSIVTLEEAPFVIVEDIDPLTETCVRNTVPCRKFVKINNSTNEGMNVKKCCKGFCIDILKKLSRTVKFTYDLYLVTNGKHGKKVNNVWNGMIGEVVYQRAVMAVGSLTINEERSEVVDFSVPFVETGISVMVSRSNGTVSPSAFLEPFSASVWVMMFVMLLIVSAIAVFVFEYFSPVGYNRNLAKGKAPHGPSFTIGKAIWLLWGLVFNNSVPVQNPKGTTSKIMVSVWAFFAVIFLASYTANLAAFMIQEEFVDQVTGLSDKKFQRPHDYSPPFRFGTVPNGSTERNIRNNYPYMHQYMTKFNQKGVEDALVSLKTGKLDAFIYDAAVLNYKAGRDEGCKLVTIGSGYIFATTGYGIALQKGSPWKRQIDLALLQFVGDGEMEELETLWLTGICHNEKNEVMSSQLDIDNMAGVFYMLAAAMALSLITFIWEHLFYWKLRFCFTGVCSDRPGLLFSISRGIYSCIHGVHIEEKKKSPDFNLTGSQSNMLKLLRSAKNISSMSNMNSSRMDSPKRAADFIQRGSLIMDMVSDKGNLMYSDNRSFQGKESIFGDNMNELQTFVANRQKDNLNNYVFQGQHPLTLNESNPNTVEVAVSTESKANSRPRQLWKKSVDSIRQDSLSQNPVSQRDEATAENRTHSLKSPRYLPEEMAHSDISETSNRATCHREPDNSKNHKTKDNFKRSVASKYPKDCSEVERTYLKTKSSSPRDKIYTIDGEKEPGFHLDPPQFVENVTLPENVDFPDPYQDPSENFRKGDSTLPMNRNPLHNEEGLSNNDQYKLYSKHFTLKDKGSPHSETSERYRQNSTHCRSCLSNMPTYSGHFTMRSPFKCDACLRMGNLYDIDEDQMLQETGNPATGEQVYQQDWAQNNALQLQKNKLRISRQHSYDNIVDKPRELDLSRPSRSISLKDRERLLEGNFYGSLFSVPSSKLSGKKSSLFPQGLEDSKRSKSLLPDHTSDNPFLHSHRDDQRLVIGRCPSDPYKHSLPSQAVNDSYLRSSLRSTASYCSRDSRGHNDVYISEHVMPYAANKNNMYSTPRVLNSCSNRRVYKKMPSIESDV", "assay": "cell-based", "assay_type": "cell-based", "set-up": "host or cells: CHO (CHO-hNR1-h2A), tetracycline-induced expression"}, "[5]": {"biological_target": "T1, NR1-2B NMDAR", "assay": "Whole-cell automated patch-clamp (QPatch) in 1 mM Mg2+", "assay_type": "cell-based", "set-up": "host or cells: CHO (CHO-hNR1-h2B), constitutive expression", "details": "1 mM MgCl2, 10 μM L-glutamate, 10 μM glycine", "procedure": "(§1) Data were obtained in automated patch-clamp platform. […] Statistical results of one-way analysis of variance (ANOVA) followed by Tukey’s multiple comparisons test also reported p < 0.05 (*), p < 0.01 (**), p < 0.001 (***), and p < 0.0001 (****). Glu is glutamate.\n(§2) For QPatch experiments, cells were grown in T-flasks first at 37 °C, 5% CO2 for 3 to 4 h, then at 30 °C, 5% CO2 for 18 to 24 h in DMEM/F12 medium with added 500 μM ketamine and 10 μg/mL tetracycline (except for NR1-2B-CHO cells) without additional antibiotics. Cells were manually detached from the culture dish and automatically dispensed in QPatch wells with extracellular solution in the presence of 1 mM Mg^2+ and 500 μM ketamine.\n(§3) Holding potential was −80 mV, and voltage protocol included a depolarizing 2-s step pulse to +60 mV to check the quality of the seal and cell NMDAR expression level, followed by a 2-s ramp-up to holding potential."}, "[6]": {"biological_target": "T2, NR1-2C NMDAR", "assay": "Whole-cell automated patch-clamp (QPatch) in 1 mM Mg2+", "assay_type": "cell-based", "set-up": "host or cells: CHO (CHO-hN1-h2C), tetracycline-induced expression", "details": "1 mM MgCl2, 10 μM L-glutamate, 10 μM glycine", "procedure": "as §1, §2, §3"}, "[7]": {"biological_target": "T3, NR1-2D NMDAR", "assay": "Whole-cell automated patch-clamp (QPatch) in 1 mM Mg2+", "assay_type": "cell-based", "set-up": "host or cells: CHO (CHO-hN1-h2D), tetracycline-induced expression", "details": "1 mM MgCl2, 10 μM L-glutamate, 10 μM glycine", "procedure": "as §1, §2, §3"}, "[8]": {"biological_target": "T4, NR1-2A NMDAR", "assay": "Whole-cell automated patch-clamp (QPatch) in 1 mM Mg2+", "assay_type": "cell-based", "set-up": "host or cells: CHO (CHO-hNR1-h2A), tetracycline-induced expression", "details": "1 mM MgCl2, 10 μM L-glutamate, 10 μM glycine", "procedure": "as §1, §2, §3"}, "[9]": {"biological_target": "NMDAR", "set-up": "method as in Eurofins Panlabs Discovery Services Taiwan", "details": "assay parameter of the contract laboratory; ref Eurofins Panlabs Discovery Services Taiwan; read-out: Kd of the radioligand; cited from earlier work"}}, "data": [{"smiles": "N[C@@H](CCC(=O)O)C(=O)O", "note": "[L-glutamate]", "values": [{"measurement": "L-glutamate Max. (maximal asymptote), alone", "setting": "[1]", "result": 111, "unit": "%"}, {"measurement": "L-glutamate Max. (maximal asymptote), alone", "setting": "[2]", "result": 106, "unit": "%"}, {"measurement": "L-glutamate Max. (maximal asymptote), alone", "setting": "[3]", "result": 105, "unit": "%"}, {"measurement": "L-glutamate Max. (maximal asymptote), alone", "setting": "[4]", "result": 106, "unit": "%"}]}, {"smiles": "[Cl-].[Cl-].[Mg+2]", "note": "[MgCl2]", "values": [{"measurement": "current at −60 mV normalized to −30 mV current (100%)", "setting": "[5]", "result": "26 ± 1.8", "unit": "%"}, {"measurement": "current at −60 mV normalized to −30 mV current (100%)", "setting": "[6]", "result": "64 ± 5.6", "unit": "%"}, {"measurement": "current at −60 mV normalized to −30 mV current (100%)", "setting": "[7]", "result": "55 ± 1.8", "unit": "%"}, {"measurement": "current at −60 mV normalized to −30 mV current (100%)", "setting": "[8]", "result": "24 ± 2.4", "unit": "%"}]}, {"smiles": "c1csc(C2(N3CCCCC3)CCCCC2)c1", "note": "[[^3H]TCP]", "values": [{"measurement": "Kd", "setting": "[9]", "result": 8.4, "unit": "nM"}]}]}
